Experimental data published in PubChem BioAssay (NCI).
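How tested: cells in 96-well plates exposed to compound for 48 hours at five concentrations. GI50: concentration for 50% inhibition of growth. TGI: total growth inhibition.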

Assays:
Test in all cases: NCI-60 cell line screen, 48 h; in the data active = GI50 below about 0.43 µM; inactive = the rest
HCC-2998 colon = test system: HCC-2998 colon
MOLT-4 leukemia = test system: MOLT-4 leukemia
SK-MEL-2 melanoma = test system: SK-MEL-2 melanoma
COLO 205 colon = test system: COLO 205 colon
CAKI-1 renal = test system: CAKI-1 renal
A498 renal = test system: A498 renal
OVCAR-5 ovarian = test system: OVCAR-5 ovarian
IGROV1 ovarian = test system: IGROV1 ovarian
TK-10 renal = test system: TK-10 renal
OVCAR-4 ovarian = test system: OVCAR-4 ovarian

O=c1cc(N=Nc2ccc(O)cc2)[nH]c(=O)[nH]1
> 100 µM: TGI (HCC-2998 colon) | TGI (MOLT-4 leukemia) | TGI (SK-MEL-2 melanoma) | TGI (COLO 205 colon) | TGI (CAKI-1 renal) | TGI (A498 renal) | TGI (OVCAR-5 ovarian) | TGI (IGROV1 ovarian) | TGI (TK-10 renal) | TGI (OVCAR-4 ovarian)

Cn1cc(-c2ccc(-c3cn(C)c4ccc(Cl)cc34)s2)c2cc(Cl)ccc21
inactive: GI50 (HCC-2998 colon) > 100 µM | GI50 (MOLT-4 leukemia) > 100 µM | GI50 (SK-MEL-2 melanoma) > 100 µM | GI50 (COLO 205 colon) > 100 µM | GI50 (CAKI-1 renal) > 100 µM | GI50 (A498 renal) > 100 µM | GI50 (OVCAR-5 ovarian) > 100 µM | GI50 (IGROV1 ovarian) > 100 µM | GI50 (TK-10 renal) > 100 µM | GI50 (OVCAR-4 ovarian) > 100 µM
> 100 µM: TGI (HCC-2998 colon) | TGI (MOLT-4 leukemia) | TGI (SK-MEL-2 melanoma) | TGI (COLO 205 colon) | TGI (CAKI-1 renal) | TGI (A498 renal) | TGI (OVCAR-5 ovarian) | TGI (IGROV1 ovarian) | TGI (TK-10 renal) | TGI (OVCAR-4 ovarian)

O=C(c1cccnc1)c1cc(-c2ccccn2)c(=O)n2ccccc12
inactive: GI50 (HCC-2998 colon) > 100 µM | GI50 (MOLT-4 leukemia) > 100 µM | GI50 (SK-MEL-2 melanoma) > 100 µM | GI50 (COLO 205 colon) > 100 µM | GI50 (CAKI-1 renal) > 100 µM | GI50 (A498 renal) > 100 µM | GI50 (OVCAR-5 ovarian) > 100 µM | GI50 (IGROV1 ovarian) > 100 µM | GI50 (TK-10 renal) > 100 µM | GI50 (OVCAR-4 ovarian) > 100 µM
> 100 µM: TGI (HCC-2998 colon) | TGI (MOLT-4 leukemia) | TGI (SK-MEL-2 melanoma) | TGI (COLO 205 colon) | TGI (CAKI-1 renal) | TGI (A498 renal) | TGI (OVCAR-5 ovarian) | TGI (IGROV1 ovarian) | TGI (TK-10 renal) | TGI (OVCAR-4 ovarian)

COc1ccc2c(c1)C(C)Cc1c(Cl)nc(C)nc1N2C (stereo not given)
29.5 µM: TGI (SK-MEL-2 melanoma)
25 µM: TGI (A498 renal)
8.93 µM: TGI (HCC-2998 colon)
38.8 µM: TGI (TK-10 renal)
inactive: GI50 (HCC-2998 colon) 2.29 µM | GI50 (MOLT-4 leukemia) 5.01 µM | GI50 (SK-MEL-2 melanoma) 10.6 µM | GI50 (COLO 205 colon) 2.07 µM | GI50 (CAKI-1 renal) 2.56 µM | GI50 (A498 renal) 6.79 µM | GI50 (OVCAR-5 ovarian) 5.91 µM | GI50 (IGROV1 ovarian) 4.41 µM | GI50 (TK-10 renal) 4.55 µM | GI50 (OVCAR-4 ovarian) 4.94 µM
5.53 µM: TGI (COLO 205 colon)
> 100 µM: TGI (MOLT-4 leukemia) | TGI (CAKI-1 renal) | TGI (OVCAR-5 ovarian) | TGI (IGROV1 ovarian) | TGI (OVCAR-4 ovarian)

Cc1ccc2c(c1)C(=O)c1c-2n(CCCBr)c(=O)c2cc([N+](=O)[O-])ccc12
65.8 µM: TGI (IGROV1 ovarian)
32.6 µM: TGI (CAKI-1 renal)
inactive: GI50 (HCC-2998 colon) 11.7 µM | GI50 (MOLT-4 leukemia) 26.6 µM | GI50 (SK-MEL-2 melanoma) > 100 µM | GI50 (COLO 205 colon) 87.4 µM | GI50 (CAKI-1 renal) 5.28 µM | GI50 (A498 renal) 51.7 µM | GI50 (OVCAR-5 ovarian) > 100 µM | GI50 (IGROV1 ovarian) 6.65 µM | GI50 (TK-10 renal) > 100 µM | GI50 (OVCAR-4 ovarian) > 100 µM
77.6 µM: TGI (HCC-2998 colon)
> 100 µM: TGI (MOLT-4 leukemia) | TGI (SK-MEL-2 melanoma) | TGI (COLO 205 colon) | TGI (A498 renal) | TGI (OVCAR-5 ovarian) | TGI (TK-10 renal) | TGI (OVCAR-4 ovarian)

O=C(CN(/C=C/C(=O)C(F)(F)F)c1ccccc1)c1ccc(Cl)c(Cl)c1
26.6 µM: TGI (SK-MEL-2 melanoma)
27.4 µM: TGI (A498 renal)
inactive: GI50 (HCC-2998 colon) 15.8 µM | GI50 (MOLT-4 leukemia) 12.7 µM | GI50 (SK-MEL-2 melanoma) 12.4 µM | GI50 (COLO 205 colon) 19.5 µM | GI50 (CAKI-1 renal) 8.44 µM | GI50 (A498 renal) 14.2 µM | GI50 (OVCAR-5 ovarian) 17 µM | GI50 (IGROV1 ovarian) 5.76 µM | GI50 (TK-10 renal) 15.9 µM | GI50 (OVCAR-4 ovarian) 20.3 µM
29.9 µM: TGI (HCC-2998 colon)
33.9 µM: TGI (OVCAR-5 ovarian)
32.4 µM: TGI (MOLT-4 leukemia)
32.8 µM: TGI (TK-10 renal)
19.7 µM: TGI (IGROV1 ovarian)
23.4 µM: TGI (CAKI-1 renal)
45.6 µM: TGI (OVCAR-4 ovarian)
42.4 µM: TGI (COLO 205 colon)

COC(=O)C1=C(C(=O)OC)SC(=C(N=Nc2ccccc2)c2ccccc2)S1
> 100 µM: TGI (HCC-2998 colon) | TGI (MOLT-4 leukemia) | TGI (SK-MEL-2 melanoma) | TGI (COLO 205 colon) | TGI (CAKI-1 renal) | TGI (A498 renal) | TGI (OVCAR-5 ovarian) | TGI (IGROV1 ovarian) | TGI (TK-10 renal) | TGI (OVCAR-4 ovarian)

COc1cc(C2CC(c3ccc(N(C)C)cc3)=NN2C(C)=O)cc(OC)c1OC (stereo not given)
> 41.4 µM: TGI (COLO 205 colon)
27.1 µM: TGI (HCC-2998 colon)
> 47.4 µM: TGI (A498 renal)
> 100 µM: TGI (MOLT-4 leukemia) | TGI (SK-MEL-2 melanoma) | TGI (CAKI-1 renal) | TGI (OVCAR-5 ovarian) | TGI (IGROV1 ovarian) | TGI (TK-10 renal) | TGI (OVCAR-4 ovarian)
inactive: GI50 (HCC-2998 colon) 2.61 µM | GI50 (MOLT-4 leukemia) 12.8 µM | GI50 (SK-MEL-2 melanoma) 12.9 µM | GI50 (COLO 205 colon) 3.06 µM | GI50 (CAKI-1 renal) 0.801 µM | GI50 (A498 renal) 2.18 µM | GI50 (OVCAR-5 ovarian) > 27.8 µM | GI50 (IGROV1 ovarian) 2.65 µM | GI50 (TK-10 renal) 14.3 µM | GI50 (OVCAR-4 ovarian) 10.9 µM

CCNCCNc1cc(C2CCCCC2)c(C#N)c2nc3ccccc3n12
6.79 µM: TGI (HCC-2998 colon)
4.71 µM: TGI (SK-MEL-2 melanoma)
3.41 µM: TGI (COLO 205 colon)
2.95 µM: TGI (A498 renal)
4.97 µM: TGI (MOLT-4 leukemia)
6.56 µM: TGI (OVCAR-5 ovarian)
7.04 µM: TGI (IGROV1 ovarian)
6.42 µM: TGI (OVCAR-4 ovarian)
3.91 µM: TGI (CAKI-1 renal)
6.12 µM: TGI (TK-10 renal)
inactive: GI50 (HCC-2998 colon) 2.53 µM | GI50 (MOLT-4 leukemia) 2.04 µM | GI50 (SK-MEL-2 melanoma) 2.29 µM | GI50 (COLO 205 colon) 1.58 µM | GI50 (CAKI-1 renal) 1.82 µM | GI50 (A498 renal) 1.56 µM | GI50 (OVCAR-5 ovarian) 2.57 µM | GI50 (IGROV1 ovarian) 2.38 µM | GI50 (TK-10 renal) 2.41 µM | GI50 (OVCAR-4 ovarian) 2.1 µM

CCN(CC)CC(C(=O)Nc1c(C)cccc1C)/C(C)=N\NC(=O)c1ccncc1 (stereo not given)
> 100 µM: TGI (HCC-2998 colon) | TGI (MOLT-4 leukemia) | TGI (SK-MEL-2 melanoma) | TGI (COLO 205 colon) | TGI (CAKI-1 renal) | TGI (A498 renal) | TGI (OVCAR-5 ovarian) | TGI (IGROV1 ovarian) | TGI (TK-10 renal) | TGI (OVCAR-4 ovarian)

O=C(N/N=C/c1cc([N+](=O)[O-])ccc1O)c1cccc2ccccc12
8.47 µM: TGI (IGROV1 ovarian)
29.3 µM: TGI (A498 renal)
26.2 µM: TGI (OVCAR-4 ovarian)
21.7 µM: TGI (MOLT-4 leukemia)
16.3 µM: TGI (COLO 205 colon)
inactive: GI50 (HCC-2998 colon) 5.3 µM | GI50 (MOLT-4 leukemia) 2.41 µM | GI50 (SK-MEL-2 melanoma) 6.69 µM | GI50 (COLO 205 colon) 3.41 µM | GI50 (CAKI-1 renal) 1.31 µM | GI50 (A498 renal) 2.71 µM | GI50 (OVCAR-5 ovarian) 6.2 µM | GI50 (IGROV1 ovarian) 2.36 µM | GI50 (TK-10 renal) 4.4 µM | GI50 (OVCAR-4 ovarian) 1.2 µM
72.9 µM: TGI (TK-10 renal)
> 100 µM: TGI (HCC-2998 colon) | TGI (SK-MEL-2 melanoma) | TGI (OVCAR-5 ovarian)
4.67 µM: TGI (CAKI-1 renal)

CS(=O)(=O)Nc1ccc(N=Cc2c(O)[nH]c3ccccc23)cc1
inactive: GI50 (HCC-2998 colon) > 25 µM | GI50 (MOLT-4 leukemia) > 25 µM | GI50 (SK-MEL-2 melanoma) > 25 µM | GI50 (COLO 205 colon) > 25 µM | GI50 (CAKI-1 renal) > 13.9 µM | GI50 (A498 renal) > 25 µM | GI50 (OVCAR-5 ovarian) > 25 µM | GI50 (IGROV1 ovarian) > 25 µM | GI50 (TK-10 renal) > 25 µM | GI50 (OVCAR-4 ovarian) > 25 µM
> 25 µM: TGI (HCC-2998 colon) | TGI (MOLT-4 leukemia) | TGI (SK-MEL-2 melanoma) | TGI (COLO 205 colon) | TGI (CAKI-1 renal) | TGI (A498 renal) | TGI (OVCAR-5 ovarian) | TGI (IGROV1 ovarian) | TGI (TK-10 renal) | TGI (OVCAR-4 ovarian)
